Results from ChEMBL document CHEMBL5465560, “Selectivity Literature for EUbOPEN Chemogenomic Library” (2024).

Columns and labels:
[1] = target: T1, Rhodopsin kinase GRK1 (Homo sapiens) (UniProt Q15835); conditions: at 10 µM
T1 sequence (whole entry): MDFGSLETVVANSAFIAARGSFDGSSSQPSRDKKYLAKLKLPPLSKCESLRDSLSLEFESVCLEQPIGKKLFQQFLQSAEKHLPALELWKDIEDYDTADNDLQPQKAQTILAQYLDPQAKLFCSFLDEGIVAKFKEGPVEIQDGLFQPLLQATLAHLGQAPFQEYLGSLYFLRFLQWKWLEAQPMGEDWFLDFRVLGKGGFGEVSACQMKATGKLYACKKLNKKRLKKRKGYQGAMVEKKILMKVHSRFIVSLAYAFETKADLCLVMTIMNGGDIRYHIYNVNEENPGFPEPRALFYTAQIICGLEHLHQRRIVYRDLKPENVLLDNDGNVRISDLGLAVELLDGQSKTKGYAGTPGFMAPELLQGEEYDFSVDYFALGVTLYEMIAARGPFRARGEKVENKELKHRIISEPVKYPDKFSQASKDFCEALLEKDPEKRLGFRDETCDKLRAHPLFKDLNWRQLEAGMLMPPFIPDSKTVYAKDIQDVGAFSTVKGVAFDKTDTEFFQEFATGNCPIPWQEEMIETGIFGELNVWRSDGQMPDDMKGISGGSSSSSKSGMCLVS

[2] = target: Cyclin-dependent kinase 12 (Homo sapiens, UniProt Q9NYV4); assay: Selectivity interaction (ActivX KiNativ screen (kinase selectivity in THP-1 cell lysates)) EUB0000639a CDK12; type: subcellular; conditions: lysate
Misshapen-like kinase 1 = Misshapen-like kinase 1 (Homo sapiens, UniProt Q8N4C8); assay: Selectivity interaction (Kinase panel (Invitrogen)) EUB0000639a MINK1; conditions: at 200 nM
[3] = target: MAP/microtubule affinity-regulating kinase 3 (Homo sapiens) (UniProt P27448); assay: Selectivity interaction (Kinase panel (literature)) EUB0001199aCl MARK3; conditions: at 1 µM
[4] = target: T2, MAP/microtubule affinity-regulating kinase 4 (Homo sapiens) (UniProt Q96L34); assay: Selectivity interaction (KinomeScan (DiscoverX)) EUB0000695a MARK4; conditions: at 100 nM
T2 sequence (whole entry): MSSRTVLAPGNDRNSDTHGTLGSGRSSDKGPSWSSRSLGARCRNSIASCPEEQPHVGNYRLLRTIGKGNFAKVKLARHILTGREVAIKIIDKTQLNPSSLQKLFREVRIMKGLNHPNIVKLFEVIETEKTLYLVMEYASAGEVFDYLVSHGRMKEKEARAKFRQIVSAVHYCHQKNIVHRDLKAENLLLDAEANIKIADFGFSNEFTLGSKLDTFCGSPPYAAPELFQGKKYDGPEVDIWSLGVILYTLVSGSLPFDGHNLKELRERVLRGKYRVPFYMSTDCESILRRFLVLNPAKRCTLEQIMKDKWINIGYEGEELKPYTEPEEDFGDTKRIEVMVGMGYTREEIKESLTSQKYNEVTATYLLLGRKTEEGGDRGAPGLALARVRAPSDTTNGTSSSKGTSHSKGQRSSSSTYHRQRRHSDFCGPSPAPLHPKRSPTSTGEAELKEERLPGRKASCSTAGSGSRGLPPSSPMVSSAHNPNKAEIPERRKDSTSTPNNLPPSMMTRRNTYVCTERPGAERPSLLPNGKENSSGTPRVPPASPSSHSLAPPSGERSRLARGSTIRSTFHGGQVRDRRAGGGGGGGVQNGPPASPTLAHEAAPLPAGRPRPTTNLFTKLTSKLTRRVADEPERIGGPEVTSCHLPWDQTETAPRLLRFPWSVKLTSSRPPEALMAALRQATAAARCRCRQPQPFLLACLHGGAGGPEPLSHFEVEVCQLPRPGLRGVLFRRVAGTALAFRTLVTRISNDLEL

[5] = tested on: T3, Receptor-type tyrosine-protein kinase FLT3 (Homo sapiens), P36888 [D835Y]; conditions: at 10 µM
T3 sequence (whole entry): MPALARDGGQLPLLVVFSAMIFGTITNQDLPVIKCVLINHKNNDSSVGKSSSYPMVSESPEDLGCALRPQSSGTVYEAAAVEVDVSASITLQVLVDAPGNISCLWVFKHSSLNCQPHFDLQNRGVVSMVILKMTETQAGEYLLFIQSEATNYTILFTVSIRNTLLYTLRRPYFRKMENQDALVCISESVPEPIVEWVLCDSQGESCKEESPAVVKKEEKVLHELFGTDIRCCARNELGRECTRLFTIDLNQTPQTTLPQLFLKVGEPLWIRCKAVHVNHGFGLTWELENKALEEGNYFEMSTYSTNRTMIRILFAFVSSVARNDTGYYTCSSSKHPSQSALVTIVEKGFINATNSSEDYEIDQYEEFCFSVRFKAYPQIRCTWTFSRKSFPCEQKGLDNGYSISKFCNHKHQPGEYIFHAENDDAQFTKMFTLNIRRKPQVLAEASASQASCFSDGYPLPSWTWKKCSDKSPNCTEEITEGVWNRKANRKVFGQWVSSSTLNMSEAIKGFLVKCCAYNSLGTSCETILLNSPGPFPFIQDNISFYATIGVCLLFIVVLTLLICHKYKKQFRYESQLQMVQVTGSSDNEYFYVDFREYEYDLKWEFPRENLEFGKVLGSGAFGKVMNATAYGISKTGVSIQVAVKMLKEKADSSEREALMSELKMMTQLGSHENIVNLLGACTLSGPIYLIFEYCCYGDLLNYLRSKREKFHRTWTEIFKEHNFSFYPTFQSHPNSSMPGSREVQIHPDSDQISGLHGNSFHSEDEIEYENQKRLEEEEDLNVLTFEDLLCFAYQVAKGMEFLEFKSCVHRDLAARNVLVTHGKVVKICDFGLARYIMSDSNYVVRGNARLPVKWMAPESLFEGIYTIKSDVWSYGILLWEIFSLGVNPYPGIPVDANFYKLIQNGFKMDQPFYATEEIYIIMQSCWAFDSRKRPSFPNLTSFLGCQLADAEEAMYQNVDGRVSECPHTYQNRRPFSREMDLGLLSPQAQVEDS

[6] = target: Fibroblast growth factor receptor 1 (Homo sapiens, UniProt P11362); assay: Selectivity interaction (Kinase panel (DSF assay)) EUB0001559a FGFR1
Sequence of Fibroblast growth factor receptor 1 (P11362 22-822 limits assumed): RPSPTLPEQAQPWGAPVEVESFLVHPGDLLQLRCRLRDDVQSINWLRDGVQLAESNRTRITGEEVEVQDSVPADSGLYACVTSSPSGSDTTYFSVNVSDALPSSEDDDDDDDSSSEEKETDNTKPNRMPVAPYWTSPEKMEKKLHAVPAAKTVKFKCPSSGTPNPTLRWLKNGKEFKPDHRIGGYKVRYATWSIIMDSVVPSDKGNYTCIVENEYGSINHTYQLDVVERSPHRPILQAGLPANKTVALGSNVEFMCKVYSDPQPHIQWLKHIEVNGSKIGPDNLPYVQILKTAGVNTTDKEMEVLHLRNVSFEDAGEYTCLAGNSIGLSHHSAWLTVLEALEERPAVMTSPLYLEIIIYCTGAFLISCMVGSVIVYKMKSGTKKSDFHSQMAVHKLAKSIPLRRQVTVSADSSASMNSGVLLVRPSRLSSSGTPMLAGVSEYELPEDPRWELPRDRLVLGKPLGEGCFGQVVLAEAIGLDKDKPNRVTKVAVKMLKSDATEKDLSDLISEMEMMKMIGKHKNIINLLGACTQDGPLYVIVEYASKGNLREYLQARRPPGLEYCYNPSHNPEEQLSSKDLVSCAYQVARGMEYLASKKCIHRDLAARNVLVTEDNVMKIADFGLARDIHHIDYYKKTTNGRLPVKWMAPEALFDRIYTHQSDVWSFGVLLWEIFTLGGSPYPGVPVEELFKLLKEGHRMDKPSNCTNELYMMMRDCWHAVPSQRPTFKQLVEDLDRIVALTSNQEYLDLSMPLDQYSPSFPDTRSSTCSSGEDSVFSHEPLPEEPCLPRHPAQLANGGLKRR

Sequence of Cyclin-dependent kinase 12 (Q9NYV4 whole entry, looked up): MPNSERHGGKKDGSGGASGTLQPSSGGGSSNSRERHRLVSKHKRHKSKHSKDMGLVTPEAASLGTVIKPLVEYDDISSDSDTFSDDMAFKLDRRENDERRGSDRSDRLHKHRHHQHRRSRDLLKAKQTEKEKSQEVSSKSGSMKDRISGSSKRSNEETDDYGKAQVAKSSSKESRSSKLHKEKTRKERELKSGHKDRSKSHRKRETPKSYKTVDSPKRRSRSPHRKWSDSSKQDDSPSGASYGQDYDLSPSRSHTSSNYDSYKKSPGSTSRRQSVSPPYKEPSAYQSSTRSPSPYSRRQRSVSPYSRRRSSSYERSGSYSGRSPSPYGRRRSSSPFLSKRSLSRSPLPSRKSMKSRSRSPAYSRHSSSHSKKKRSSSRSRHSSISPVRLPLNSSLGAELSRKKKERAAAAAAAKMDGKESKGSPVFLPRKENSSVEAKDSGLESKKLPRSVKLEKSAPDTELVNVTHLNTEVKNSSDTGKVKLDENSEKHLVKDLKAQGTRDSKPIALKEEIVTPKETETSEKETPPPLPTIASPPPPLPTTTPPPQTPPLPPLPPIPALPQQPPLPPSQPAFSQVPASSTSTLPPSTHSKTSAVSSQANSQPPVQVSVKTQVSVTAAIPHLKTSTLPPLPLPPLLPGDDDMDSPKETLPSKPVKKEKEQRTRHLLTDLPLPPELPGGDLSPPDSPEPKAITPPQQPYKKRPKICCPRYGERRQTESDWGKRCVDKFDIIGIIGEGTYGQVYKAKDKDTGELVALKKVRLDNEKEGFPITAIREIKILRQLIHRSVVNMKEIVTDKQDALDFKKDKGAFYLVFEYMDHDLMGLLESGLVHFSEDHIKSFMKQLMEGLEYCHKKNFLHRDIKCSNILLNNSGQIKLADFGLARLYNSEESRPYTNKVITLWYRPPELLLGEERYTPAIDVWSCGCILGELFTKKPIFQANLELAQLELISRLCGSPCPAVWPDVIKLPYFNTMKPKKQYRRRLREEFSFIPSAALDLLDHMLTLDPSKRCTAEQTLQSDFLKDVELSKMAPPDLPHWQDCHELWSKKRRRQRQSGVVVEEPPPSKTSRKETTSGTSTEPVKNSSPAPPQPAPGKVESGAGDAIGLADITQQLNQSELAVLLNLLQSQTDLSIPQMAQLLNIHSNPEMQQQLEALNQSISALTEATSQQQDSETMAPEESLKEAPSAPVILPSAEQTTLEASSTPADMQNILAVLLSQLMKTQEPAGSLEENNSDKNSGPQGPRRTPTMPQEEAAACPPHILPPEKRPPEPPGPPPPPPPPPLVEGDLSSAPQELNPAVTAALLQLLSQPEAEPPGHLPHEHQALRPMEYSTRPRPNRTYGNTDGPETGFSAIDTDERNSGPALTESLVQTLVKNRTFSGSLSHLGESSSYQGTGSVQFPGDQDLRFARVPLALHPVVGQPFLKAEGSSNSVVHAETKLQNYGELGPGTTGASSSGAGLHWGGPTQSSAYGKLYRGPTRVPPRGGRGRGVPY
Sequence of MAP/microtubule affinity-regulating kinase 3 (Homo sapiens) (P27448 whole entry, looked up): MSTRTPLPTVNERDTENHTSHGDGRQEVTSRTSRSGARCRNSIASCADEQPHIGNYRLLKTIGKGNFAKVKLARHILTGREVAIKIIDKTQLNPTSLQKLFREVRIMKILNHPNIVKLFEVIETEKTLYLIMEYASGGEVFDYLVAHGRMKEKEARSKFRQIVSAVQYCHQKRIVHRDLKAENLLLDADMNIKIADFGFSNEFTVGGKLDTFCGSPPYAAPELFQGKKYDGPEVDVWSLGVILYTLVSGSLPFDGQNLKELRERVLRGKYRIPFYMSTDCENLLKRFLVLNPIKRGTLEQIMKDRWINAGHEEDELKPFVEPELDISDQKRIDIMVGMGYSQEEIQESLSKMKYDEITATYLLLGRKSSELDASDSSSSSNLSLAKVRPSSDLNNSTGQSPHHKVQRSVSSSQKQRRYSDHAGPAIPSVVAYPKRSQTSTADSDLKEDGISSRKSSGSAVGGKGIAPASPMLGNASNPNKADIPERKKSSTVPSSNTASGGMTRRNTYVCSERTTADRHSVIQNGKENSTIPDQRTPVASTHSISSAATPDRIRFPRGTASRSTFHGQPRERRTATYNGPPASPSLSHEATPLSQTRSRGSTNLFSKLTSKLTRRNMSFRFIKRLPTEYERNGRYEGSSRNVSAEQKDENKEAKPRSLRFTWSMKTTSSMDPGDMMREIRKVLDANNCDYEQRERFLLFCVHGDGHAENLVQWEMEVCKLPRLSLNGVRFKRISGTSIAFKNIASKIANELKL
Sequence of Misshapen-like kinase 1 (Q8N4C8 whole entry, looked up): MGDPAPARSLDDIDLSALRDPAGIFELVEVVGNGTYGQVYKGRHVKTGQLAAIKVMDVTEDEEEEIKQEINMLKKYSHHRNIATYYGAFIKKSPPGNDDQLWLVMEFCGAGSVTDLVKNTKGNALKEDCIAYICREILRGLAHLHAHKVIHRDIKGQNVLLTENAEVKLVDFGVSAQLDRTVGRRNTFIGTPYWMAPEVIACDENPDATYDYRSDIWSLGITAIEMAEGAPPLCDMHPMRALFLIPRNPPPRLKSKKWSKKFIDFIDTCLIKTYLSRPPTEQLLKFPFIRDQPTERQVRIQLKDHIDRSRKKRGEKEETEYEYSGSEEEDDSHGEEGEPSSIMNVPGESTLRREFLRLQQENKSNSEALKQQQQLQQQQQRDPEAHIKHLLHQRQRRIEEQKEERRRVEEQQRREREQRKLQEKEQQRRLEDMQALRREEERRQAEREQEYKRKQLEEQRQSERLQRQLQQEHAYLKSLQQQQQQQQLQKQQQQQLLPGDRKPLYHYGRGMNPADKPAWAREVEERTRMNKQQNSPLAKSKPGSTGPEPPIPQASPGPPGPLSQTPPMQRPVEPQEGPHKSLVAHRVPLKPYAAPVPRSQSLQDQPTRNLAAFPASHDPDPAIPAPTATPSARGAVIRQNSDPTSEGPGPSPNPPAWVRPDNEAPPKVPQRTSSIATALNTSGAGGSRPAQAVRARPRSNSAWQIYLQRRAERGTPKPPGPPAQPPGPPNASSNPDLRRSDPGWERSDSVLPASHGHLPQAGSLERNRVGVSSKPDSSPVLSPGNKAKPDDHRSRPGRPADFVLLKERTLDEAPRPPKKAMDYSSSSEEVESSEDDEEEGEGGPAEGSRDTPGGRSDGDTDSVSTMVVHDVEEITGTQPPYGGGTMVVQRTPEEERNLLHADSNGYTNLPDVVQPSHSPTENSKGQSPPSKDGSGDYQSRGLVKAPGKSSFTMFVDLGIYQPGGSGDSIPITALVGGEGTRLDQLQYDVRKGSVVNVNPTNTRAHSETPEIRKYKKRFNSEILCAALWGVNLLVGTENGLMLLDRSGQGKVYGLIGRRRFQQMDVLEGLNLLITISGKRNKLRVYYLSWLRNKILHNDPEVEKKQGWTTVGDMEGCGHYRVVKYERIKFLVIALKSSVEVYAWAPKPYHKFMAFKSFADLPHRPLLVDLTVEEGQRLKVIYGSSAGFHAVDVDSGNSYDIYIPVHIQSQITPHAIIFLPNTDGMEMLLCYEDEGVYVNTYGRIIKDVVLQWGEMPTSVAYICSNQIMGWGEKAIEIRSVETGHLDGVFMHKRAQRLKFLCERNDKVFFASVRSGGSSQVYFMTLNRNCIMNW

## Cc1cc([C@@H](C)Nc2ccccc2C(=O)O)c2nc(N3CCOCC3)cc(=O)n2c1 [AZD-6482]
[1]
  % of control: 100%

## CC[C@@H]1[C@H](F)C(=O)N[C@@H]1COc1nccc2cc(C(N)=O)c(OC)cc12 [ZIMLOVISERTIB]
[2]; at 0.01 µM
  % of inhibition: -24.7%
[2]; at 0.04 µM
  % of inhibition: -15%
[2]; at 0.2 µM
  % of inhibition: -4.7%
[2]; at 1 µM
  % of inhibition: -15.6%
[2]; at 5 µM
  % of inhibition: -19.6%
Misshapen-like kinase 1
  % of inhibition: 18.8%

## CN1Cc2nccc(-c3cn(C)nc3-c3ccc(F)cc3)c2C1=O
[3]
  % of inhibition: -2%

## Cc1cc(F)c(C(=O)Nc2cccc(-c3nncn3C(C)C)n2)cc1-n1cnc(C2CC2)c1
[4]
  % of control: 100%

## CCN(CC)CCCCNc1ncc2cc(-c3cc(OC)cc(OC)c3)c(NC(=O)NC(C)(C)C)nc2n1
[5]
  % of control: 100%

## CN(C(=O)c1cnn2cccnc12)c1cc2c(cc1N1CCOCC1)C(=O)N(C[C@@H](F)C(C)(C)O)C2
[6]
  dTM: 1 K
